{"source": "the kinase profiling compilation of Christmann-Franck et al. (2016)", "key": {"PHKG1 (human)": {"molecular_target": "PHKG1 (human) (UniProt Q16816)", "assay": "Caliper, Mobility shift assay off-chip"}, "FLT1 (human)": {"molecular_target": "FLT1 (human) (UniProt P17948)", "assay": "Caliper, Mobility shift assay off-chip"}, "PRKCD (human)": {"molecular_target": "PRKCD (human) (UniProt Q05655)", "assay": "Caliper, Mobility shift assay off-chip"}, "PRKAA1 (human)": {"molecular_target": "PRKAA1 (human) (UniProt Q13131)", "sequence (Q13131 whole entry, looked up)": "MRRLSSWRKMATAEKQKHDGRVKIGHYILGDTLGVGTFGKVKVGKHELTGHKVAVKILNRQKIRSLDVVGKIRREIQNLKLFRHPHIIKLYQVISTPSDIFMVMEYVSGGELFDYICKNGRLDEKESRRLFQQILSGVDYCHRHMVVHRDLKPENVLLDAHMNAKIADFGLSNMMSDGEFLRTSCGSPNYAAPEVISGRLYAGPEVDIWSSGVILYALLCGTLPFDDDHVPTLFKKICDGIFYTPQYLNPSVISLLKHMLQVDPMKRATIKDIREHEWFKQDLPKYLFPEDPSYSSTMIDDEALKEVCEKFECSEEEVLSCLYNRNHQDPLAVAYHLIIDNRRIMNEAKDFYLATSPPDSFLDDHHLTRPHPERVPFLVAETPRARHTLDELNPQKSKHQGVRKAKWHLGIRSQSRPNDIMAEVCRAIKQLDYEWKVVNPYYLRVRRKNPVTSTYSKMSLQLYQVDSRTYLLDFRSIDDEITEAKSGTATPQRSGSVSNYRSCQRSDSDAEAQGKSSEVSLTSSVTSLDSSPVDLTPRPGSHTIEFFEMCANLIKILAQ", "assay": "Caliper, Mobility shift assay off-chip"}, "EEF2K (human)": {"molecular_target": "EEF2K (human) (UniProt O00418)", "sequence (O00418 whole entry, looked up)": "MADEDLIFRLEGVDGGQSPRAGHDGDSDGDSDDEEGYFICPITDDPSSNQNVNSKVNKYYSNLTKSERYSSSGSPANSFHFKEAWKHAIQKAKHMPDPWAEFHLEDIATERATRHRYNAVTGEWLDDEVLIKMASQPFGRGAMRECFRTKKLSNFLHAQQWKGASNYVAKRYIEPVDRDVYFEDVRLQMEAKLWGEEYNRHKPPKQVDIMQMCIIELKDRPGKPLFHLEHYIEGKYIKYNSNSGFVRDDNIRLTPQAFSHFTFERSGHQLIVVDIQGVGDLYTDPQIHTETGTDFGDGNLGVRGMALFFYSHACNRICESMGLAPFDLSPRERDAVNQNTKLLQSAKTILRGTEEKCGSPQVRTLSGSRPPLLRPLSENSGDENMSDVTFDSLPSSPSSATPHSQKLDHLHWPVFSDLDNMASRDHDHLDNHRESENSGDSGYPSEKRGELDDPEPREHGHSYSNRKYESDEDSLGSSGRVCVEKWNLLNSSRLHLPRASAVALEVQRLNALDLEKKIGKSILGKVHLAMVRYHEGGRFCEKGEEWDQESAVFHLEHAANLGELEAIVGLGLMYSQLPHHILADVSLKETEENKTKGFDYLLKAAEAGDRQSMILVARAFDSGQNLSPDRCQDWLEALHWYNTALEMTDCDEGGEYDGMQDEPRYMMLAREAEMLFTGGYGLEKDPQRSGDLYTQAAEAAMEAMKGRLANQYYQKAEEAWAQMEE", "assay": "Caliper, Mobility shift assay off-chip"}, "IRAK4 (human)": {"molecular_target": "IRAK4 (human) (UniProt Q9NWZ3)", "assay": "Caliper, Mobility shift assay off-chip"}, "HIPK3 (human)": {"molecular_target": "HIPK3 (human) (UniProt Q9H422)", "sequence (Q9H422 whole entry, looked up)": "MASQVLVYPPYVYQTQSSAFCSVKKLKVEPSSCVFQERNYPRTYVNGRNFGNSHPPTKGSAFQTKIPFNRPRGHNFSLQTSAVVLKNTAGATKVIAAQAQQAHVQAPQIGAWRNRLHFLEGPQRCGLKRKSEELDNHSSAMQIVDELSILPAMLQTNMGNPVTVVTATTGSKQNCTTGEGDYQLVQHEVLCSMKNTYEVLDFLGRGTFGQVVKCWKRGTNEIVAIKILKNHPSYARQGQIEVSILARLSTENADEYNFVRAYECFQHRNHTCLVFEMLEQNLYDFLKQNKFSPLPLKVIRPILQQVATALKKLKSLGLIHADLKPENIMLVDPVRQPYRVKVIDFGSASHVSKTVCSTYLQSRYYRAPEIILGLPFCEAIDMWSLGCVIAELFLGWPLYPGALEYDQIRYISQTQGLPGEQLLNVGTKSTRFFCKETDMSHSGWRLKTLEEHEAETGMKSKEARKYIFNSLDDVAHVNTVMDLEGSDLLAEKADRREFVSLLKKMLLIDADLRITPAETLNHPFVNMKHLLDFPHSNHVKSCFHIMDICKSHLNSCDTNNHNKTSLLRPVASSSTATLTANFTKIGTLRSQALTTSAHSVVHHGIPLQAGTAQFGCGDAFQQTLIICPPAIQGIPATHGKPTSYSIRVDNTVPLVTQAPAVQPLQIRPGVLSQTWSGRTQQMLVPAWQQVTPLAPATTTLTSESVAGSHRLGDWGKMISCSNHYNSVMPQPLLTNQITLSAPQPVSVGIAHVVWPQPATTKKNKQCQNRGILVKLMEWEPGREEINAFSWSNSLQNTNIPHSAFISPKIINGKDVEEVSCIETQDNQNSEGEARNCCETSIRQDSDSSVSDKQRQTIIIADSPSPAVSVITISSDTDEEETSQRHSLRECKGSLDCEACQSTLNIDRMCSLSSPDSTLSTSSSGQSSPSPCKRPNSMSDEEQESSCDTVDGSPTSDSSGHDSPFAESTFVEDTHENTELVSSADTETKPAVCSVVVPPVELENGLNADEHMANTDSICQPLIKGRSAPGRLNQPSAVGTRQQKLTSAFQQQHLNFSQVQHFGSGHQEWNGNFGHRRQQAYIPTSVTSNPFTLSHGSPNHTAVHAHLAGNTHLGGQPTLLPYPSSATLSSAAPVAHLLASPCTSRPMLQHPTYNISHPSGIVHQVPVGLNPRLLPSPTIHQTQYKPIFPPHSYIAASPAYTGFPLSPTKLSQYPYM", "assay": "Caliper, Mobility shift assay off-chip"}, "PRKCG (human)": {"molecular_target": "PRKCG (human) (UniProt P05129)", "assay": "Caliper, Mobility shift assay off-chip"}, "SGK2 (human)": {"molecular_target": "SGK2 (human) (UniProt Q9HBY8)", "assay": "Caliper, Mobility shift assay off-chip"}, "CSK (human)": {"molecular_target": "CSK (human) (UniProt P41240)", "assay": "Caliper, Mobility shift assay off-chip"}, "BRSK1 (human)": {"molecular_target": "BRSK1 (human) (UniProt Q8TDC3)", "assay": "Caliper, Mobility shift assay off-chip"}, "MAPK12 (human)": {"molecular_target": "MAPK12 (human) (UniProt P53778)", "assay": "Caliper, Mobility shift assay off-chip"}, "ITK (human)": {"molecular_target": "ITK (human) (UniProt Q08881)", "assay": "Caliper, Mobility shift assay off-chip"}, "PDPK1 (human)": {"molecular_target": "PDPK1 (human) (UniProt O15530)", "assay": "Caliper, Mobility shift assay off-chip"}, "PRKACB (human)": {"molecular_target": "PRKACB (human) (UniProt P22694)", "assay": "Caliper, Mobility shift assay off-chip"}, "DCLK2 (human)": {"molecular_target": "DCLK2 (human) (UniProt Q8N568)", "assay": "Caliper, Mobility shift assay off-chip"}, "PIM1 (human)": {"molecular_target": "PIM1 (human) (UniProt P11309)", "sequence (P11309 whole entry, looked up)": "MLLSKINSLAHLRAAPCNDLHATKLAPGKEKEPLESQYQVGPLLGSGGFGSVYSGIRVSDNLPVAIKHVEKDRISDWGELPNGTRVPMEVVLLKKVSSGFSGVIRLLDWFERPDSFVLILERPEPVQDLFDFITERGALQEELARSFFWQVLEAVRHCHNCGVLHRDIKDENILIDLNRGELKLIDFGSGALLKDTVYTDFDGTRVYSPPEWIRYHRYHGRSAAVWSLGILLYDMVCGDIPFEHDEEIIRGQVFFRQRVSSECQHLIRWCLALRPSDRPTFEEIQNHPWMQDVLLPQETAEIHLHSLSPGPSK", "assay": "Caliper, Mobility shift assay off-chip"}, "TBK1 (human)": {"molecular_target": "TBK1 (human) (UniProt Q9UHD2)", "assay": "Caliper, Mobility shift assay off-chip"}, "PDGFRA (human)": {"molecular_target": "PDGFRA (human) (UniProt P16234)", "assay": "Caliper, Mobility shift assay off-chip"}, "PTK2B (human)": {"molecular_target": "PTK2B (human) (UniProt Q14289)", "assay": "Caliper, Mobility shift assay off-chip"}, "CDC7 (human)": {"molecular_target": "CDC7 (human) (UniProt O00311)", "sequence (O00311 whole entry, looked up)": "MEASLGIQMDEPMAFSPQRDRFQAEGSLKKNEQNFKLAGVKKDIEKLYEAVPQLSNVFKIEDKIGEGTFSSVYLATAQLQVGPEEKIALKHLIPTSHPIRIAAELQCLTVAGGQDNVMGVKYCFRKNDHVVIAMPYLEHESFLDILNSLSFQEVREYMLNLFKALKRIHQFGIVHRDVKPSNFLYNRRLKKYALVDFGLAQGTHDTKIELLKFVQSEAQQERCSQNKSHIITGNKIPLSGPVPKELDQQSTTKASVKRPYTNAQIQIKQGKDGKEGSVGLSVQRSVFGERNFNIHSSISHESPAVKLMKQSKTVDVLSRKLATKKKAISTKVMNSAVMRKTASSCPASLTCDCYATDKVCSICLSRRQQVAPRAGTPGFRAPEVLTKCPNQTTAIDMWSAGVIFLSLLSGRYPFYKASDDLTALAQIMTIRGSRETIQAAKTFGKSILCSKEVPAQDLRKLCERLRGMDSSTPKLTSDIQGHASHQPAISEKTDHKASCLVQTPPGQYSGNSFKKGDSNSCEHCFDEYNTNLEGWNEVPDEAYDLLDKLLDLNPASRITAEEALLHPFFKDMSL", "assay": "Caliper, Mobility shift assay off-chip"}, "ALK NPM1 (human)": {"molecular_target": "ALK NPM1 (human) (UniProt P06748+Q9UM73)", "assay": "Caliper, Mobility shift assay off-chip"}, "SRMS (human)": {"molecular_target": "SRMS (human) (UniProt Q9H3Y6)", "sequence (Q9H3Y6 whole entry, looked up)": "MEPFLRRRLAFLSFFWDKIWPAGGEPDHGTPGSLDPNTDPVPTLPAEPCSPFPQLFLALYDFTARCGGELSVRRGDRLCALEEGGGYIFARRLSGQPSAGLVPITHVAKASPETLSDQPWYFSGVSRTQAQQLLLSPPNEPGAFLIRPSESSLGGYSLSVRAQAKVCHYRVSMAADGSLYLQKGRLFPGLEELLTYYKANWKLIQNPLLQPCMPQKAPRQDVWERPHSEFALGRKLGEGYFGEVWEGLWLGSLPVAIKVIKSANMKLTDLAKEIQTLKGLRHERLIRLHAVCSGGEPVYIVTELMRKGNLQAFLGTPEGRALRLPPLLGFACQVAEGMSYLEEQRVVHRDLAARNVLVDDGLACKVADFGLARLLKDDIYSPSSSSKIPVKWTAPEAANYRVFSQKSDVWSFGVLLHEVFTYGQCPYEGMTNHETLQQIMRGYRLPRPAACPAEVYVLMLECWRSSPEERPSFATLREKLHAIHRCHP", "assay": "Caliper, Mobility shift assay off-chip"}, "NEK2 (human)": {"molecular_target": "NEK2 (human) (UniProt P51955)", "assay": "Caliper, Mobility shift assay off-chip"}, "CAMK4 (human)": {"molecular_target": "CAMK4 (human) (UniProt Q16566)", "sequence (Q16566 whole entry, looked up)": "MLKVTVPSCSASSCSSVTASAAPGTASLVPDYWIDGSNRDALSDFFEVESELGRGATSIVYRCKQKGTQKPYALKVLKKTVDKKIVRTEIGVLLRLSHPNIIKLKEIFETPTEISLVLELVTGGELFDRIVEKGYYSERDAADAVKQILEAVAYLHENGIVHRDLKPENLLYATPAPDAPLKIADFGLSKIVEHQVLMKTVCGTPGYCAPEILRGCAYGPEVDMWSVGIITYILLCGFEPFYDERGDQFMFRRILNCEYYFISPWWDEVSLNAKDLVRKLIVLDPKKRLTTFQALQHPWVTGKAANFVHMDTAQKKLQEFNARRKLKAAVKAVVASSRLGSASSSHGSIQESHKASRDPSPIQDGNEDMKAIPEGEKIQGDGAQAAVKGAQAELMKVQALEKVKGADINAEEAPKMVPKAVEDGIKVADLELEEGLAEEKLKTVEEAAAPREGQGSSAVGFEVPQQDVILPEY", "assay": "Caliper, Mobility shift assay off-chip"}, "TNK1 (human)": {"molecular_target": "TNK1 (human) (UniProt Q13470)", "assay": "Caliper, Mobility shift assay off-chip"}, "FYN (human)": {"molecular_target": "FYN (human) (UniProt P06241)", "assay": "Caliper, Mobility shift assay off-chip"}, "MARK2 (human)": {"molecular_target": "MARK2 (human) (UniProt Q7KZI7)", "assay": "Caliper, Mobility shift assay off-chip"}, "PKN1 (human)": {"molecular_target": "PKN1 (human) (UniProt Q16512)", "assay": "IMAP-FP"}, "EIF2AK2 (human)": {"molecular_target": "EIF2AK2 (human) (UniProt P19525)", "assay": "IMAP-FP"}, "EIF2AK3 (human)": {"molecular_target": "EIF2AK3 (human) (UniProt Q9NZJ5)", "assay": "IMAP-FP"}, "PLK2 (human)": {"molecular_target": "PLK2 (human) (UniProt Q9NYY3)", "assay": "IMAP-FP"}, "SRPK1 (human)": {"molecular_target": "SRPK1 (human) (UniProt Q96SB4)", "assay": "IMAP-FP"}}}
{"smiles": "CNC(=O)c1cc(Oc2ccc(NC(=O)Nc3ccc(Cl)c(C(F)(F)F)c3)cc2)ccn1", "values": [{"measurement": "inhibition", "setting": "PHKG1 (human); compound 0.02 µM", "result": -3.6, "unit": "%"}, {"measurement": "inhibition", "setting": "PHKG1 (human); compound 0.2 µM", "result": -2, "unit": "%"}, {"measurement": "inhibition", "setting": "FLT1 (human); compound 0.02 µM", "result": 49.3, "unit": "%"}, {"measurement": "inhibition", "setting": "FLT1 (human); compound 0.2 µM", "result": 99.6, "unit": "%"}, {"measurement": "inhibition", "setting": "PRKCD (human); compound 0.02 µM", "result": -1.7, "unit": "%"}, {"measurement": "inhibition", "setting": "PRKCD (human); compound 0.2 µM", "result": 11.7, "unit": "%"}, {"measurement": "inhibition", "setting": "PRKAA1 (human); compound 0.02 µM", "result": -5.7, "unit": "%"}, {"measurement": "inhibition", "setting": "PRKAA1 (human); compound 0.2 µM", "result": 10.7, "unit": "%"}, {"measurement": "inhibition", "setting": "EEF2K (human); compound 0.02 µM", "result": -3.9, "unit": "%"}, {"measurement": "inhibition", "setting": "EEF2K (human); compound 0.2 µM", "result": 0, "unit": "%"}, {"measurement": "inhibition", "setting": "IRAK4 (human); compound 0.02 µM", "result": -5.9, "unit": "%"}, {"measurement": "inhibition", "setting": "IRAK4 (human); compound 0.2 µM", "result": -4.6, "unit": "%"}, {"measurement": "inhibition", "setting": "HIPK3 (human); compound 0.02 µM", "result": 3.2, "unit": "%"}, {"measurement": "inhibition", "setting": "HIPK3 (human); compound 0.2 µM", "result": 28, "unit": "%"}, {"measurement": "inhibition", "setting": "PRKCG (human); compound 0.02 µM", "result": -2.1, "unit": "%"}, {"measurement": "inhibition", "setting": "PRKCG (human); compound 0.2 µM", "result": 16.8, "unit": "%"}, {"measurement": "inhibition", "setting": "SGK2 (human); compound 0.02 µM", "result": -0.9, "unit": "%"}, {"measurement": "inhibition", "setting": "SGK2 (human); compound 0.2 µM", "result": 8.4, "unit": "%"}, {"measurement": "inhibition", "setting": "CSK (human); compound 0.02 µM", "result": -9.3, "unit": "%"}, {"measurement": "inhibition", "setting": "CSK (human); compound 0.2 µM", "result": 2.6, "unit": "%"}, {"measurement": "inhibition", "setting": "BRSK1 (human); compound 0.02 µM", "result": -2.6, "unit": "%"}, {"measurement": "inhibition", "setting": "BRSK1 (human); compound 0.2 µM", "result": -6, "unit": "%"}, {"measurement": "inhibition", "setting": "MAPK12 (human); compound 0.02 µM", "result": -5.9, "unit": "%"}, {"measurement": "inhibition", "setting": "MAPK12 (human); compound 0.2 µM", "result": -0.3, "unit": "%"}, {"measurement": "inhibition", "setting": "ITK (human); compound 0.02 µM", "result": -2.9, "unit": "%"}, {"measurement": "inhibition", "setting": "ITK (human); compound 0.2 µM", "result": 7.5, "unit": "%"}, {"measurement": "inhibition", "setting": "PDPK1 (human); compound 0.02 µM", "result": -1, "unit": "%"}, {"measurement": "inhibition", "setting": "PDPK1 (human); compound 0.2 µM", "result": 0.9, "unit": "%"}, {"measurement": "inhibition", "setting": "PRKACB (human); compound 0.02 µM", "result": -7.7, "unit": "%"}, {"measurement": "inhibition", "setting": "PRKACB (human); compound 0.2 µM", "result": 3.1, "unit": "%"}, {"measurement": "inhibition", "setting": "DCLK2 (human); compound 0.02 µM", "result": -2.7, "unit": "%"}, {"measurement": "inhibition", "setting": "DCLK2 (human); compound 0.2 µM", "result": -1, "unit": "%"}, {"measurement": "inhibition", "setting": "PIM1 (human); compound 0.02 µM", "result": 1, "unit": "%"}, {"measurement": "inhibition", "setting": "PIM1 (human); compound 0.2 µM", "result": -3.6, "unit": "%"}, {"measurement": "inhibition", "setting": "TBK1 (human); compound 0.02 µM", "result": -1.4, "unit": "%"}, {"measurement": "inhibition", "setting": "TBK1 (human); compound 0.2 µM", "result": -1.1, "unit": "%"}, {"measurement": "inhibition", "setting": "PDGFRA (human); compound 0.02 µM", "result": 97.3, "unit": "%"}, {"measurement": "inhibition", "setting": "PDGFRA (human); compound 0.2 µM", "result": 105, "unit": "%"}, {"measurement": "inhibition", "setting": "PTK2B (human); compound 0.02 µM", "result": -2.8, "unit": "%"}, {"measurement": "inhibition", "setting": "PTK2B (human); compound 0.2 µM", "result": -2.7, "unit": "%"}, {"measurement": "inhibition", "setting": "CDC7 (human); compound 0.02 µM", "result": -4.3, "unit": "%"}, {"measurement": "inhibition", "setting": "CDC7 (human); compound 0.2 µM", "result": -4.2, "unit": "%"}, {"measurement": "inhibition", "setting": "ALK NPM1 (human); compound 0.02 µM", "result": -6, "unit": "%"}, {"measurement": "inhibition", "setting": "ALK NPM1 (human); compound 0.2 µM", "result": 5, "unit": "%"}, {"measurement": "inhibition", "setting": "SRMS (human); compound 0.02 µM", "result": -0.4, "unit": "%"}, {"measurement": "inhibition", "setting": "SRMS (human); compound 0.2 µM", "result": 4.1, "unit": "%"}, {"measurement": "inhibition", "setting": "NEK2 (human); compound 0.02 µM", "result": -2.3, "unit": "%"}, {"measurement": "inhibition", "setting": "NEK2 (human); compound 0.2 µM", "result": 8.8, "unit": "%"}, {"measurement": "inhibition", "setting": "CAMK4 (human); compound 0.02 µM", "result": -8.3, "unit": "%"}, {"measurement": "inhibition", "setting": "CAMK4 (human); compound 0.2 µM", "result": 1.9, "unit": "%"}, {"measurement": "inhibition", "setting": "TNK1 (human); compound 0.02 µM", "result": -0.4, "unit": "%"}, {"measurement": "inhibition", "setting": "TNK1 (human); compound 0.2 µM", "result": 19, "unit": "%"}, {"measurement": "inhibition", "setting": "FYN (human); compound 0.02 µM", "result": -2.5, "unit": "%"}, {"measurement": "inhibition", "setting": "FYN (human); compound 0.2 µM", "result": 14.5, "unit": "%"}, {"measurement": "inhibition", "setting": "MARK2 (human); compound 0.02 µM", "result": -10.6, "unit": "%"}, {"measurement": "inhibition", "setting": "MARK2 (human); compound 0.2 µM", "result": -9.7, "unit": "%"}, {"measurement": "inhibition", "setting": "PKN1 (human); compound 0.02 µM", "result": -40.2, "unit": "%"}, {"measurement": "inhibition", "setting": "PKN1 (human); compound 0.2 µM", "result": -39.4, "unit": "%"}, {"measurement": "inhibition", "setting": "EIF2AK2 (human); compound 0.02 µM", "result": -12.3, "unit": "%"}, {"measurement": "inhibition", "setting": "EIF2AK2 (human); compound 0.2 µM", "result": -14.3, "unit": "%"}, {"measurement": "inhibition", "setting": "EIF2AK3 (human); compound 0.02 µM", "result": -23.9, "unit": "%"}, {"measurement": "inhibition", "setting": "EIF2AK3 (human); compound 0.2 µM", "result": 4.5, "unit": "%"}, {"measurement": "inhibition", "setting": "PLK2 (human); compound 0.02 µM", "result": -0.6, "unit": "%"}, {"measurement": "inhibition", "setting": "PLK2 (human); compound 0.2 µM", "result": -2.1, "unit": "%"}, {"measurement": "inhibition", "setting": "SRPK1 (human); compound 0.02 µM", "result": -5.4, "unit": "%"}, {"measurement": "inhibition", "setting": "SRPK1 (human); compound 0.2 µM", "result": 0.2, "unit": "%"}]}
